From US8703701B2 (Indiana University Research and Technology Corporation, priority 2009, dated 2014) come the findings set out here.

Broadly, the EC50 is the concentration needed to bring the measured effect to its halfway point.

Molecules are shown by their SMILES. Starred links: 1 amine or outer side, 2 acyl side, 3 side chain; linkers in the order of their positions; H or OH if unused. Non-standard residues stand in square brackets, D forms with d. Residues, ends and D or L forms follow the SMILES beside them. Groups on a side chain read outwards from the residue. *: point of attachment. γGlu = O=C(O)[C@H](CCC(=O)[*:2])N[*:1]; Myristoyl = CCCCCCCCCCCCCC(=O)*; Aib = CC(C)(N)C(=O)O

For assay [1], the target named is T1, glucagon receptor (Homo sapiens, UniProt P47871).
T1 construct: expressed in transfected cells; host or cells: HEK293
T1 sequence (P47871 26-477): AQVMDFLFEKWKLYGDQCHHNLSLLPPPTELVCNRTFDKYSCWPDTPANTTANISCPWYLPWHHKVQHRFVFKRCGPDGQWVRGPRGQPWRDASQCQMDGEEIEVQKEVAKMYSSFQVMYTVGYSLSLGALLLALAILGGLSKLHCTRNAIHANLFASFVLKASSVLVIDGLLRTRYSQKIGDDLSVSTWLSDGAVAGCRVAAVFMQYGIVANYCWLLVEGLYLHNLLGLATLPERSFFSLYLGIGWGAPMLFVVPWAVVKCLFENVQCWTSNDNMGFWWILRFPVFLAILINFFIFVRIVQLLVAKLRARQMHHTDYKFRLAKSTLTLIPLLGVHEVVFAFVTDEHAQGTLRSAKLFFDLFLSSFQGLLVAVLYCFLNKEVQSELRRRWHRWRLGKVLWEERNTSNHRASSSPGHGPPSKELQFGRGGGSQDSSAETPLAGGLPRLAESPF
The experiment in a line: cAMP induction, firefly luciferase reporter assay, glucagon receptor. In kind it is cell-based. As to conditions: Table 3B. How it is done:
(§1) The ability of each peptide to induce cAMP was measured in a firefly luciferase-based reporter assay.
(§2) At the end of the incubation, 100 μL of LucLite luminescence substrate reagent (Perkin Elmer, Wellesley, Mass.) were added to each well. The plate was shaken briefly, incubated 10 min in the dark and light output was measured on MicroBeta-1450 liquid scintillation counter (Perkin-Elmer, Wellesley, Mass.).

For assay [2], the target named is T2, GLP-1 receptor (Homo sapiens, UniProt P43220).
T2 construct: expressed in transfected cells; host or cells: HEK293
T2 sequence (P43220 24-463): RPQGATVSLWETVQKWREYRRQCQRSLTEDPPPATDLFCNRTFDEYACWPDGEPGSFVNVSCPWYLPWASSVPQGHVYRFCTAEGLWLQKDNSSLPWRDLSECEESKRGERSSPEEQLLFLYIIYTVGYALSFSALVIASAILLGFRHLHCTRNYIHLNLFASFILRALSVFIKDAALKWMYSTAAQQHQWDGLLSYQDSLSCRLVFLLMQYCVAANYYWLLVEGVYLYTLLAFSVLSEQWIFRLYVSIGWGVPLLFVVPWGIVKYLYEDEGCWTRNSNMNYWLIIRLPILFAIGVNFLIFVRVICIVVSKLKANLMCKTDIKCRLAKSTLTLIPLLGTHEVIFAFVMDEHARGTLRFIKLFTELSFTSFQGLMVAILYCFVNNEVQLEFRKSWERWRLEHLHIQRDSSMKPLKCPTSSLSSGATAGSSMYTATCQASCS
Briefly: cAMP induction, firefly luciferase reporter assay, GLP-1 receptor. In kind it is cell-based. The following applies: Table 3B. How it is done: as §1, §2

For `CCCCCCCCCCCCCC(=O)N[C@@H](CCC(=O)N[C@@H](CCC(=O)NCCCC[C@H](NC(=O)[C@H](CC(=O)O)NC(=O)[C@H](CO)NC(=O)[C@@H](NC(=O)[C@H](Cc1ccccc1)NC(=O)[C@@H](NC(=O)CNC(=O)[C@H](CCC(N)=O)NC(=O)C(C)(C)NC(=O)[C@@H](N)Cc1c[nH]cn1)[C@@H](C)O)[C@@H](C)O)C(=O)N[C@@H](CO)C(=O)N[C@@H](CCCCN)C(=O)N[C@@H](Cc1ccc(O)cc1)C(=O)N[C@@H](CC(C)C)C(=O)N[C@@H](CC(=O)O)C(=O)NC(C)(C)C(=O)N[C@@H](CCCNC(=N)N)C(=O)N[C@@H](C)C(=O)N[C@@H](C)C(=O)N[C@@H](CCC(N)=O)C(=O)N[C@@H](CC(=O)O)C(=O)N[C@@H](Cc1ccccc1)C(=O)N[C@H](C(=O)N[C@@H](CCC(N)=O)C(=O)N[C@@H](Cc1c[nH]c2ccccc12)C(=O)N[C@@H](CC(C)C)C(=O)N[C@@H](CCSC)C(=O)N[C@@H](CC(=O)O)C(=O)N[C@H](C(N)=O)[C@@H](C)O)C(C)C)C(=O)O)C(=O)O` [compound 70] (H-H[Aib]QGTFTSDK([γGlu-γGlu-Myristoyl])SKYLD[Aib]RAAQDFVQWLMDT-NH2; N-terminus assumed), the EC50 was 6 pM in assay [1] (Activity at Glucagon Receptor EC50 [pM]) and 4 pM in assay [2] (Activity at GLP-1 Receptor EC50 [pM]). The “Activity at Glucagon Receptor % Relative Activity” value in assay [1] (compared to native glucagon) is reported as 709%. Besides, in assay [2] (compared to native GLP-1), the “Activity at GLP-1 Receptor % Relative Activity” value amounted to 500%.
